pEC50: −log10 of the molar value. Like-named read-outs stand apart in the source and are kept apart here.
What was measured:
[1] = tested on: p100/p52; test: p100/p52 Western blot (WB) assay; format: cell-based, human; settings: PBMC cells from healthy donors, 24 hrs, read-out: p100/p52 Western Blot (WB) EC50
Procedure: Cell cultures were set up to evaluate several SMACm compounds. Frozen PBMC cells from healthy donors were thawed and plated in 2 ml deepwell plates at 2×10^6 cells/ml. Serial dilutions of each compound was carried out as a 7 fold 1:6 dilution with the starting final dose of 1000 nM. Cells were then combined with compound and place at 37° for 24 hrs. The following day cells were pelleted and placed at −80 until lysis.
In preparation for cell lysis, the frozen cell pellets and an aliquot of NP40 Cell Lysis Buffer (Invitrogen, Part #FNN0021), as well as an aliquot of 10× Protease Inhibitor Cocktail (Sigma, Part #P-2714) are thawed on ice. Once thawed, the complete lysis buffer is prepared by adding 10% final volume PI cocktail to the NP40 buffer and then adding in sufficient volume of 0.1 M PMSF (Sigma, Part #93482) and 1 M DTT (Sigma, Part #43816) to create a final concentration of 1 mM each in the complete lysis buffer. Cell lysis is then carried out by resuspending each cell pellet in 30 μL per 10^6 cells then incubating on ice for 30 minutes with vigorous vortexing every 10 minutes. The lysed cells are then centrifuged at 13K RPM for 10 minutes at 4° C. in a refrigerated microcentrifuge. The supernatants (lysates) are then transferred into new microcentrifuge tubes and either stored at −80° or utilized immediately for protein concentration and Western blot analysis.
Protein concentration for each lysate is determined using a detergent compatible Bradford assay (Pierce, Part #23246) following the manufacturer's microplate instructions.
Capillary Western analysis were performed using the ProteinSimple Jess System. A total of 1 ug of cell lysate was prepared according to the provided protocol supplied by ProteinSimple. The primary antibody for p100/p52 (Cell, Signaling #3017) is diluted 1:10 for use in the Jess system. The 12-230 kDa Jess Seperation Module capillary cartridges Separation Module (SM-W004) is used in conjunction with the Anti-Rabbit Secondary NIR conjugate (043-819). The Separation module includes prefilled plates that the samples, primary and secondary antibodies, as well as protein normalization reagent and diluents are loaded onto to perform separation and detection. Once the assay has run, the data is then analyzed utilizing the Compass software provided by ProteinSimple.
Alternatively to capillary electrophoresis, traditional immunoblot assays were carried out, 10 μg of cell lysate was loaded per well into 4-20% Tris-Glycine SDS-PAGE gels. Protein from the SDS-PAGE gels were transferred to Turbo Midi PVDF Transfer Packs (BioRad) using the “Mixed MW” protocol for one Midi Format Gel (constant 2.5 A up to 25V, for 7 minutes) of the Trans-Blot Turbo Transfer System (Bio-Rad) with premade Trans-Blot per the manufacturer's instructions. After transfer, PVDF membranes were blocked in 5% bovine serum albumin (BSA) in 1×TBS (BioRad) with 0.1% Tween-20 for 1 hour at room temperature with gentle rocking. Primary antibodies were added and incubated overnight at 4° C. (anti-p100/p52, Cell Signaling Technology #3017, 1:1000; anti-Actin-HRP conjugate, Abcam #49900, 1:30,000). Following primary staining, the membrane washed three times with 1× Tris Buffered Saline (TBS)+0.1% TWEEN® 20 for 10 minutes each wash. After washing, the membrane was incubated in 5% BSA in 1×TBS+0.1% TWEEN® 20 with the appropriate secondary antibody for 2 hours at room temperature. Following secondary stain the membrane was washed twice for 10 minutes with 1×TBS+0.1% TWEEN® 20 followed by a 10-minute wash with 1×TBS. The membrane was then patted dry with filter paper and an image was captured of the undeveloped membrane on the ChemiDoc MP Imaging System using Image Lab software (BioRad). Sufficient ECL reagent (GE Healthcare) was used to cover the membrane and a series of images were taken starting with 0.001 second and doubling to tripling the exposure time until the luminescence from the developed membrane saturated the image. […]

[2] = tested on: Jurkat HIV-luciferase clones; settings: background statement; cited from earlier work
[3] = tested on: cell-associated HIV RNA (HIV gag RNA) in CD4+ T cells; settings: background statement, primary cells / resting CD4+ T cells; cited from earlier work
[4] = tested on: p100/p52; settings: background statement, primary cells; cited from earlier work

SMILES | pEC50 ([1]; Homo sapiens) | potency in cell line assays / Jurkat (HIV latency reversal) [2] | pEC50 [1] | HIV caRNA induction [3] | p100-p52 conversion [4]
CC[C@H](NC(=O)[C@H](C)NC)C(=O)N1C[C@@H](O)C[C@H]1Cc1c(-c2[nH]c3cc(F)ccc3c2C[C@@H]2C[C@H](O)CN2C(=O)[C@H](CC)NC(=O)[C@H](C)NC)[nH]c2cc(F)ccc12 [Birinapant, reference compound] | 6.00 | – | – | – | –
CN[C@H](C)C(=O)N[C@@H]1CCS[C@@H]2CC(C)(C)C(C(=O)N[C@@H]3CCCc4ccccc43)N2C1=O (stereo partly shown) [SBI-0637142] | – | potent | 6.00 to 7.00 | did not exhibit activity | did not exhibit activity
CN[C@H](C)C(=O)N[C@@H](C(=O)N1CCC[C@@H]1C(=O)N[C@@H]1c2ccccc2C[C@@H]1OCC#CC#CCO[C@@H]1Cc2ccccc2[C@H]1NC(=O)[C@H]1CCCN1C(=O)[C@H](NC(=O)[C@@H](C)NC)C1CCCCC1)C1CCCCC1 [AZD5582, reference compound] | – | – | 7.20 | increase in cell-associated HIV RNA expression | –
